US10266537B2, “3-acetylenyl-pyrazole-pyrimidine derivative, and preparation method therefor and uses thereof” (Si Chuan University, priority 2015, dated 2019)
pIC50: −log10 of the molar value. Blank lines part the entries; values can stand above or below the compound they belong to.

Assays:
MCF-7 = experiment: Cell proliferation inhibition assay (MTT); format: cell-based; details: Homo sapiens, MCF7, 72 hours, read-out: Proliferation inhibitory activity IC50
U87 = experiment: Cell proliferation inhibition assay (MTT); format: cell-based; details: Homo sapiens, U-87 MG, 72 hours, read-out: Proliferation inhibitory activity IC50
LOK(h) = LOK(h) (Homo sapiens (Human), UniProt O94804); experiment: Kinase inhibition assay (KinaseProfiler, 33P-ATP); format: biochemical; details: read-out: The percentage of the remaining active protein
[1] = target: PI3 Kinase (p110a/p85a)(m) (Mus musculus (Mouse), UniProt P42337); experiment: Kinase inhibition assay (KinaseProfiler, 33P-ATP); format: biochemical; details: read-out: The percentage of the remaining active protein
Chain of PI3 Kinase (p110a/p85a)(m) (P42337 whole entry): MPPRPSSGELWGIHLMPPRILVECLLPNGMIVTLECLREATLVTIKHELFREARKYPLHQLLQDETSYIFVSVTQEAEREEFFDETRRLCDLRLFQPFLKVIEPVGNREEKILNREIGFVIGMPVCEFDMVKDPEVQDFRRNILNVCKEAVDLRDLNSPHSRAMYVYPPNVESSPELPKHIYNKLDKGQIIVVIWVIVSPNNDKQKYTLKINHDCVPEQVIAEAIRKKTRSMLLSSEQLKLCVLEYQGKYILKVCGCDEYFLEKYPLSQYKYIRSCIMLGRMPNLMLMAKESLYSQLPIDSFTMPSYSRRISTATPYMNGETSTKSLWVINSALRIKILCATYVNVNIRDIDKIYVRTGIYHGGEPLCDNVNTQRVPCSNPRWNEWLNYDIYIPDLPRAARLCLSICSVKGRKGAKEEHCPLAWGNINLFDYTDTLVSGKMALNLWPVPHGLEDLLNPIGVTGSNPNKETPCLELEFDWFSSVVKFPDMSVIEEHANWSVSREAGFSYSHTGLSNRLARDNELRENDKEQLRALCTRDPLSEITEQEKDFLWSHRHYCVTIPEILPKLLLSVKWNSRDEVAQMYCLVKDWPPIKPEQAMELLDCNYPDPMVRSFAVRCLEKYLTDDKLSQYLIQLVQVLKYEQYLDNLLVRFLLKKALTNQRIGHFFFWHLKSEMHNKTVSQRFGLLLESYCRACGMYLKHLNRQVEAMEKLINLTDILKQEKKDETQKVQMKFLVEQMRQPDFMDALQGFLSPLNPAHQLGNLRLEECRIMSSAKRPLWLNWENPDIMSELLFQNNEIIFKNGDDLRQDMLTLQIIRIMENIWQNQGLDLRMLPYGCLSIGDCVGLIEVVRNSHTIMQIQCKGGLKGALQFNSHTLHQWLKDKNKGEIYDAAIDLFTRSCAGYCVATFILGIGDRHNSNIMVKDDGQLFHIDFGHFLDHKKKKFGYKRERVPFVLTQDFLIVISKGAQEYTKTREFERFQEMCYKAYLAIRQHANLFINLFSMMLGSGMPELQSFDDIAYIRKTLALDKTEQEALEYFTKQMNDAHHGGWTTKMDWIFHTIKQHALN
Chain of PI3 Kinase (p110a/p85a)(m) (P26450 whole entry partner): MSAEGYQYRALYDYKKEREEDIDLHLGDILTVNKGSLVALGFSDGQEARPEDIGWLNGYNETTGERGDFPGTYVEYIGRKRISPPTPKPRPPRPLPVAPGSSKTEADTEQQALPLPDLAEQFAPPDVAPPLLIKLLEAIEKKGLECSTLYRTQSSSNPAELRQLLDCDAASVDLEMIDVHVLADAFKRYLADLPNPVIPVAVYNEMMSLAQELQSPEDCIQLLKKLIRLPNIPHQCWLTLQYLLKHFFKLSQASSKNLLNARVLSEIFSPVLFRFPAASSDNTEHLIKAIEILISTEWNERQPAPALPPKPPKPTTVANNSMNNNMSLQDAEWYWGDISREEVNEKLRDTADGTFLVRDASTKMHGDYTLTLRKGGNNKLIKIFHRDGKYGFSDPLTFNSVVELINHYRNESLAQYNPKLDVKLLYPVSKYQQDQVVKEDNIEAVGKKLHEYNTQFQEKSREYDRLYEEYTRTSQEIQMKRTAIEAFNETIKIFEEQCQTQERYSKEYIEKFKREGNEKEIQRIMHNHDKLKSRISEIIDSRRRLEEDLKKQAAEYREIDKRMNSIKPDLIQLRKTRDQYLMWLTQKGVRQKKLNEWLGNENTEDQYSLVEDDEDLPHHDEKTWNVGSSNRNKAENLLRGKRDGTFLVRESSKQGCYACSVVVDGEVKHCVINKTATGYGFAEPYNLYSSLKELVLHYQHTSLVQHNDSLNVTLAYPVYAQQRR

STK25(h) = STK25(h) (Homo sapiens (Human), UniProt O00506); experiment: Kinase inhibition assay (KinaseProfiler, 33P-ATP); format: biochemical; details: read-out: The percentage of the remaining active protein
PIP5K1a(h) = PIP5K1a(h) (Homo sapiens (Human), UniProt Q99755); experiment: Kinase inhibition assay (KinaseProfiler, 33P-ATP); format: biochemical; details: read-out: The percentage of the remaining active protein
ATM(h) = ATM(h) (Homo sapiens (Human), UniProt Q13315); experiment: Kinase inhibition assay (KinaseProfiler, 33P-ATP); format: biochemical; details: read-out: The percentage of the remaining active protein
Pim-3(h) = Pim-3(h) (Homo sapiens (Human), UniProt Q86V86); experiment: Kinase inhibition assay (KinaseProfiler, 33P-ATP); format: biochemical; details: read-out: The percentage of the remaining active protein
PKG1α(h) = PKG1α(h) (Homo sapiens (Human), UniProt Q13976); experiment: Kinase inhibition assay (KinaseProfiler, 33P-ATP); format: biochemical; details: read-out: The percentage of the remaining active protein
SAPK3(h) = SAPK3(h) (Homo sapiens (Human), UniProt P53778); experiment: Kinase inhibition assay (KinaseProfiler, 33P-ATP); format: biochemical; details: read-out: The percentage of the remaining active protein
Chain of SAPK3(h) (P53778 whole entry): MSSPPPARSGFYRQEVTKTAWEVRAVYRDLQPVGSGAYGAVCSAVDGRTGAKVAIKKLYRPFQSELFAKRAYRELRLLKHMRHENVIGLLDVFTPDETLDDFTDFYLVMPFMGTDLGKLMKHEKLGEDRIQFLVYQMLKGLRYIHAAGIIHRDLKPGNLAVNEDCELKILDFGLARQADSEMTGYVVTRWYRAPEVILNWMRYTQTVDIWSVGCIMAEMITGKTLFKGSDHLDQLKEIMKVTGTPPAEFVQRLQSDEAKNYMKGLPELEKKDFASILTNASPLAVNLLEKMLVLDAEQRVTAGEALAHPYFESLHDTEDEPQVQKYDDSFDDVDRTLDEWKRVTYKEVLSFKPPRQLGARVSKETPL

CDK6/cyclinD3(h) = CDK6/cyclinD3(h) (Homo sapiens (Human), UniProt Q00534); experiment: Kinase inhibition assay (KinaseProfiler, 33P-ATP); format: biochemical; details: read-out: The percentage of the remaining active protein
PDGFRα (V561D) = PDGFRα (V561D) (Homo sapiens (Human), UniProt P16234, V561D); experiment: Kinase inhibition assay (KinaseProfiler, 33P-ATP); format: biochemical; details: PDGFRα(V561D)(h), read-out: The percentage of the remaining active protein
cKit(V654A)(h) = cKit(V654A)(h) (Homo sapiens (Human), UniProt P10721, V654A); experiment: Kinase inhibition assay (KinaseProfiler, 33P-ATP); format: biochemical; details: read-out: The percentage of the remaining active protein
CLK3(h) = CLK3(h) (Homo sapiens (Human), UniProt P49761); experiment: Kinase inhibition assay (KinaseProfiler, 33P-ATP); format: biochemical; details: read-out: The percentage of the remaining active protein
Lck(h) activated = Lck(h) activated (Homo sapiens (Human), UniProt P06239); experiment: Kinase inhibition assay (KinaseProfiler, 33P-ATP); format: biochemical; details: read-out: The percentage of the remaining active protein
MSK1(h) = MSK1(h) (Homo sapiens (Human), UniProt O75582); experiment: Kinase inhibition assay (KinaseProfiler, 33P-ATP); format: biochemical; details: read-out: The percentage of the remaining active protein
ROCK-II(r) = ROCK-II(r) (Rattus norvegicus (Rat), UniProt Q62868); experiment: Kinase inhibition assay (KinaseProfiler, 33P-ATP); format: biochemical; details: read-out: The percentage of the remaining active protein
Chain of ROCK-II(r) (Q62868 whole entry): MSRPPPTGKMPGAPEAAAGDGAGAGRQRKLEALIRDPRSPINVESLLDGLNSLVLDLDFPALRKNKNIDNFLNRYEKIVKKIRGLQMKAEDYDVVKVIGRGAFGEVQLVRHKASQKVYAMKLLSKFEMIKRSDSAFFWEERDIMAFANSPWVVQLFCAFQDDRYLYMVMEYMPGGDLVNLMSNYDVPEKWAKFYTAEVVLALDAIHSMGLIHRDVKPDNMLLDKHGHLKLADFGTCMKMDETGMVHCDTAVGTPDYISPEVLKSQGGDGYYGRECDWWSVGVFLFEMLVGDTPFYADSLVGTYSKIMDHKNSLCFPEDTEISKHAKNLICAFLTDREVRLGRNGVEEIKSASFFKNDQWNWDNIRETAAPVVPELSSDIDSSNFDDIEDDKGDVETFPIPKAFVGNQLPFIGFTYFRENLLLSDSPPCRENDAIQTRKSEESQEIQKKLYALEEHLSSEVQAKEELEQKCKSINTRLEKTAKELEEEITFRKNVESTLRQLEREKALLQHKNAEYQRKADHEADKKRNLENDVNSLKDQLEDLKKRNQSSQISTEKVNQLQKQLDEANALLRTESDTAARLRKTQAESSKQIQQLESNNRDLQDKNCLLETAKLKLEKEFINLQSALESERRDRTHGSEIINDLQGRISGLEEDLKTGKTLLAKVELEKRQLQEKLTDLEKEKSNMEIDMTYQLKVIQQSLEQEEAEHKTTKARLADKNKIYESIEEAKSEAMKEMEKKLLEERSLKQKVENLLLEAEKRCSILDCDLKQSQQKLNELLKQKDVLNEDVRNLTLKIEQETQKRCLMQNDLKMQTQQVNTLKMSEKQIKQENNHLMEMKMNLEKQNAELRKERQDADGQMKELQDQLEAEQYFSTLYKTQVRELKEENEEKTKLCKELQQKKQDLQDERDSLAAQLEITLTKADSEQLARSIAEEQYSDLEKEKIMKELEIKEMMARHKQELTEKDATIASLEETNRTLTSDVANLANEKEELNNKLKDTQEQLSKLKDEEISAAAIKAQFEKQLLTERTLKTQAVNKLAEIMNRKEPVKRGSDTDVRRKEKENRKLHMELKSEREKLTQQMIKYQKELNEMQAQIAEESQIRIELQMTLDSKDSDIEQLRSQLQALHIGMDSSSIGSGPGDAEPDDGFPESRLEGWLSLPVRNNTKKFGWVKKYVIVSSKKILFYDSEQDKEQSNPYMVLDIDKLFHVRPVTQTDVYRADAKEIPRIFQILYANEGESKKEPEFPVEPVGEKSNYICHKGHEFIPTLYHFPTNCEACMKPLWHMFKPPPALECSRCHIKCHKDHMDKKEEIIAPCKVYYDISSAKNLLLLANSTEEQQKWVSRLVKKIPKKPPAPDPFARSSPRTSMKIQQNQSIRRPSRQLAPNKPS

DCAMKL2(h) = DCAMKL2(h) (Homo sapiens (Human), UniProt Q8N568); experiment: Kinase inhibition assay (KinaseProfiler, 33P-ATP); format: biochemical; details: read-out: The percentage of the remaining active protein
Fes(h) = Fes(h) (Homo sapiens (Human), UniProt P07332); experiment: Kinase inhibition assay (KinaseProfiler, 33P-ATP); format: biochemical; details: read-out: The percentage of the remaining active protein
MSK2(h) = MSK2(h) (Homo sapiens (Human), UniProt O75676); experiment: Kinase inhibition assay (KinaseProfiler, 33P-ATP); format: biochemical; details: read-out: The percentage of the remaining active protein
Chain of MSK2(h) (O75676 whole entry): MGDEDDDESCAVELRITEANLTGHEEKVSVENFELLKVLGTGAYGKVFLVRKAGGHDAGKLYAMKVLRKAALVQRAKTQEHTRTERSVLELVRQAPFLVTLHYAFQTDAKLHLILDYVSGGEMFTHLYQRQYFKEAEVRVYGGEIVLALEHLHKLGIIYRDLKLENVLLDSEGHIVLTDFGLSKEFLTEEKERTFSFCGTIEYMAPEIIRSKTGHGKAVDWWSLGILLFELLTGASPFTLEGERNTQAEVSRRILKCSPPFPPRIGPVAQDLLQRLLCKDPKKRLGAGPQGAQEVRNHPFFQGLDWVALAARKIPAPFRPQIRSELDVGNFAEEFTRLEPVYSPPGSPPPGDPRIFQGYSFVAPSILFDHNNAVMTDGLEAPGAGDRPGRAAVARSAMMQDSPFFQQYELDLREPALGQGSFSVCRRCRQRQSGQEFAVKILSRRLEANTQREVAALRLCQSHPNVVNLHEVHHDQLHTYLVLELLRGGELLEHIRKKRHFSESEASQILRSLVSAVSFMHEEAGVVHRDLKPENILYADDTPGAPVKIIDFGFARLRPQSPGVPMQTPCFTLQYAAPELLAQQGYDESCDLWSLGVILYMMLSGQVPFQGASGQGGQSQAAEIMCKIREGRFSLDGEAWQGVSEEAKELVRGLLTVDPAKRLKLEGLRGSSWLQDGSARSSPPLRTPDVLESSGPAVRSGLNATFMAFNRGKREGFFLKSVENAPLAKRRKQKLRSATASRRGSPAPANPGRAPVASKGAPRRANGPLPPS

NEK7(h) = NEK7(h) (Homo sapiens (Human), UniProt Q8TDX7); experiment: Kinase inhibition assay (KinaseProfiler, 33P-ATP); format: biochemical; details: read-out: The percentage of the remaining active protein
Chain of NEK7(h) (Q8TDX7 whole entry): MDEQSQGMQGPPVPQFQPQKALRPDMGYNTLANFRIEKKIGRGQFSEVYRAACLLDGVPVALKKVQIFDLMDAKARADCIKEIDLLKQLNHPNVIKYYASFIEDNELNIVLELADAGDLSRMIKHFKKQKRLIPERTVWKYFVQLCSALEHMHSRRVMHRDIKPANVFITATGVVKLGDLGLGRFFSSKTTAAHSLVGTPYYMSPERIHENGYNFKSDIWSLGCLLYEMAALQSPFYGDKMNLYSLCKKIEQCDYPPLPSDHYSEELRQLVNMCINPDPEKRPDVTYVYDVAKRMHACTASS

Rsk1(h) = Rsk1(h) (Homo sapiens (Human), UniProt Q15418); experiment: Kinase inhibition assay (KinaseProfiler, 33P-ATP); format: biochemical; details: read-out: The percentage of the remaining active protein
Haspin(h) = Haspin(h) (Homo sapiens (Human), UniProt Q8TF76); experiment: Kinase inhibition assay (KinaseProfiler, 33P-ATP); format: biochemical; details: read-out: The percentage of the remaining active protein
MKK7β(h) = MKK7β(h) (Homo sapiens (Human), UniProt O14733); experiment: Kinase inhibition assay (KinaseProfiler, 33P-ATP); format: biochemical; details: read-out: The percentage of the remaining active protein
Flt3(h) = Flt3(h) (Homo sapiens (Human), UniProt P36888); experiment: Kinase inhibition assay (KinaseProfiler, 33P-ATP); format: biochemical; details: 10 μM, read-out: The percentage of the remaining active protein
[2] = target: PI3 Kinase (p110a/p65a)(h) (Homo sapiens (Human), UniProt P42336); experiment: Kinase inhibition assay (KinaseProfiler, 33P-ATP); format: biochemical; details: read-out: The percentage of the remaining active protein
Flt3(D835Y)(h) = Flt3(D835Y)(h) (Homo sapiens (Human), UniProt P36888, D835Y); experiment: Kinase inhibition assay (KinaseProfiler, 33P-ATP); format: biochemical; details: read-out: The percentage of the remaining active protein
Fgr = Fgr (Homo sapiens (Human), UniProt P09769); experiment: Kinase inhibition assay (KinaseProfiler, 33P-ATP); format: biochemical; details: Fgr(h), read-out: The percentage of the remaining active protein
Abl (H396P)(h) = Abl (H396P)(h) (Homo sapiens (Human), UniProt P00519, H396P); experiment: Kinase inhibition assay (KinaseProfiler, 33P-ATP); format: biochemical; details: read-out: The percentage of the remaining active protein
EphA4 = EphA4 (Homo sapiens (Human), UniProt P54764); experiment: Kinase inhibition assay (KinaseProfiler, 33P-ATP); format: biochemical; details: EphA4(h), read-out: The percentage of the remaining active protein
Aurora-C(h) = Aurora-C(h) (Homo sapiens (Human), UniProt Q9UQB9); experiment: Kinase inhibition assay (KinaseProfiler, 33P-ATP); format: biochemical; details: read-out: The percentage of the remaining active protein
Chain of Aurora-C(h) (Q9UQB9 whole entry): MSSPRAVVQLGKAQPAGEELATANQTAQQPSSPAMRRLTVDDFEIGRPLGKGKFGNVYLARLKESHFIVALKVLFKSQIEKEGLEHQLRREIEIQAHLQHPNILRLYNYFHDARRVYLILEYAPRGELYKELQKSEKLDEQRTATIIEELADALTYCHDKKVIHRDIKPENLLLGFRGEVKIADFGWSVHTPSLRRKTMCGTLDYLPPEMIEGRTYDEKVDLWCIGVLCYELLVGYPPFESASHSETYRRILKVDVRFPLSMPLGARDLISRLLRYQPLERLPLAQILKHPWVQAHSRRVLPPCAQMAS

NEK9(h) = NEK9(h) (Homo sapiens (Human), UniProt Q8TD19); experiment: Kinase inhibition assay (KinaseProfiler, 33P-ATP); format: biochemical; details: read-out: The percentage of the remaining active protein
CaMKI(h) = CaMKI(h) (Homo sapiens (Human), UniProt Q14012); experiment: Kinase inhibition assay (KinaseProfiler, 33P-ATP); format: biochemical; details: read-out: The percentage of the remaining active protein
PKCζ(h) = PKCζ(h) (Homo sapiens (Human), UniProt Q05513); experiment: Kinase inhibition assay (KinaseProfiler, 33P-ATP); format: biochemical; details: read-out: The percentage of the remaining active protein
p70S6K(h) = p70S6K(h) (Homo sapiens (Human), UniProt P23443); experiment: Kinase inhibition assay (KinaseProfiler, 33P-ATP); format: biochemical; details: read-out: The percentage of the remaining active protein
Ret(V804M)(h) = Ret(V804M)(h) (Homo sapiens (Human), UniProt P07949, V804M); experiment: Kinase inhibition assay (KinaseProfiler, 33P-ATP); format: biochemical; details: read-out: The percentage of the remaining active protein

pIC50 (MCF-7): 5.70 | pIC50 (U87): 5.27
Structure (SMILES): Cc1ccc(NC(=O)c2cccc(C(F)(F)F)c2)cc1C#Cc1nn(C2CCN(C)CC2)c2ncnc(N)c12 [Compound 31]

remaining activity at 10 µM (LOK(h)): 16% | remaining activity at 10 µM [1]: 90% | remaining activity at 10 µM (STK25(h)): 66% | remaining activity at 10 µM (PIP5K1a(h)): 102% | remaining activity at 10 µM (ATM(h)): 102% | remaining activity at 10 µM (Pim-3(h)): 99% | remaining activity at 10 µM (PKG1α(h)): 118% | remaining activity at 10 µM (SAPK3(h)): 68% | remaining activity at 10 µM (CDK6/cyclinD3(h)): 120% | remaining activity at 10 µM (PDGFRα (V561D)): 0% | remaining activity at 10 µM (cKit(V654A)(h)): 7% | remaining activity at 10 µM (CLK3(h)): 83% | remaining activity at 10 µM (Lck(h) activated): 0% | remaining activity at 10 µM (MSK1(h)): 95% | remaining activity at 10 µM (ROCK-II(r)): 85% | remaining activity at 10 µM (DCAMKL2(h)): 102% | remaining activity at 10 µM (Fes(h)): 34% | remaining activity at 10 µM (MSK2(h)): 70% | remaining activity at 10 µM (NEK7(h)): 98% | remaining activity at 10 µM (Rsk1(h)): 11% | remaining activity at 10 µM (Haspin(h)): 93% | remaining activity at 10 µM (MKK7β(h)): 70% | remaining activity at 10 µM (Flt3(h)): 73% | remaining activity at 10 µM [2]: 92% | remaining activity at 10 µM (Flt3(D835Y)(h)): 118% | remaining activity at 10 µM (Fgr): 2% | remaining activity at 10 µM (Abl (H396P)(h)): 1% | remaining activity at 10 µM (EphA4): -2% | remaining activity at 10 µM (Aurora-C(h)): 101% | remaining activity at 10 µM (CaMKI(h)): 62% | remaining activity at 10 µM (PKCζ(h)): 99% | remaining activity at 10 µM (p70S6K(h)): 33% | remaining activity at 10 µM (Ret(V804M)(h)): -2%
Structure (SMILES): Cc1ccc(NC(=O)c2ccc(C)c(C(F)(F)F)c2)cc1C#Cc1nn([C@H]2CC[C@H](O)CC2)c2ncnc(N)c12 [Compound 93]
remaining activity at 10 µM (NEK9(h)): 59%
